We go through 38 compounds from patent US20250319046A1, “PHENYLALANINE-BASED LAT1 INHIBITORS AND USES THEREOF” (MAXYMUNE THERAPEUTICS, INC., priority 2024, published 2025).

For this test, the target named is LAT1 (Homo sapiens (Human), UniProt Q01650). Briefly: LAT1 uptake inhibition assay: [3H]-gabapentin competition uptake in LN229 cells. It is filed as cell-based. Conditions: [3H]-gabapentin uptake, 15 min incubation in PBS, read-out: IC50, the concentration of test compound at which the [3H]-GP uptake was inhibited by 50%. The method, then:
LAT1 Uptake Inhibition Assay
The ability of compounds to interact with LAT1 was measured using a radiolabeled competition uptake assay with [^3H]-Gabapentin ([^3H]-GP) (Perkin Elmer) in 96-well plates with LN229 cells (ATCC®). Ten (10)×10^3 (10,000) cells/well were plated in white, clear bottom plates and were allowed to grow for three (3) days. On the fourth day, the cells were washed and then incubated with 50,000 counts per minute (cpm) of [^3H]-GP in phosphate buffered saline (PBS) (VWR International) with increasing concentrations of test compounds in at least triplicate for 15 min. At end of the assay time, the incubation solution was removed, and plates were washed three times (3×) with 100 μL of ice-cold PBS buffer. One-hundred fifty (150) […] of scintillation fluid (VWR International) was added to each well, and the radioactivity retained within the cells was measured on a 96-well scintillation counter. Background uptake ([^3H]-GP uptake in the presence of 10 mM non-radiolabeled gabapentin (GP)) (MedKoo) was subtracted and data were normalized to the DMSO control ([^3H]-GP uptake in the absence of any competitor). Data were fitted to the Michaelis-Menten equation using GraphPad Prism (Version 8.2.0).

Sequence of LAT1 (Q01650 whole entry): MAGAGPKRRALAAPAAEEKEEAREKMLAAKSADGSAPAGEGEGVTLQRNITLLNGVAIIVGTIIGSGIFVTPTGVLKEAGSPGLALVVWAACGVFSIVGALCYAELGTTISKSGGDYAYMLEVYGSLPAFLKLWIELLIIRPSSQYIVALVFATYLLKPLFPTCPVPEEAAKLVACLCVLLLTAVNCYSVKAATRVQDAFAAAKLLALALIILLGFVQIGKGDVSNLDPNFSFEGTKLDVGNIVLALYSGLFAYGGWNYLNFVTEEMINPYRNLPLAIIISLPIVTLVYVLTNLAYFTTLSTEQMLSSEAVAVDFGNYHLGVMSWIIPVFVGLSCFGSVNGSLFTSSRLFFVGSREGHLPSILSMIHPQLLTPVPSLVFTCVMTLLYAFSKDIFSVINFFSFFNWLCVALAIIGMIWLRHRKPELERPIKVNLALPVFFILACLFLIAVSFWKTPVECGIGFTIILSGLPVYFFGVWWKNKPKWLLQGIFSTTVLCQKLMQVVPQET
Sequence of LAT1 (P08195 whole entry partner): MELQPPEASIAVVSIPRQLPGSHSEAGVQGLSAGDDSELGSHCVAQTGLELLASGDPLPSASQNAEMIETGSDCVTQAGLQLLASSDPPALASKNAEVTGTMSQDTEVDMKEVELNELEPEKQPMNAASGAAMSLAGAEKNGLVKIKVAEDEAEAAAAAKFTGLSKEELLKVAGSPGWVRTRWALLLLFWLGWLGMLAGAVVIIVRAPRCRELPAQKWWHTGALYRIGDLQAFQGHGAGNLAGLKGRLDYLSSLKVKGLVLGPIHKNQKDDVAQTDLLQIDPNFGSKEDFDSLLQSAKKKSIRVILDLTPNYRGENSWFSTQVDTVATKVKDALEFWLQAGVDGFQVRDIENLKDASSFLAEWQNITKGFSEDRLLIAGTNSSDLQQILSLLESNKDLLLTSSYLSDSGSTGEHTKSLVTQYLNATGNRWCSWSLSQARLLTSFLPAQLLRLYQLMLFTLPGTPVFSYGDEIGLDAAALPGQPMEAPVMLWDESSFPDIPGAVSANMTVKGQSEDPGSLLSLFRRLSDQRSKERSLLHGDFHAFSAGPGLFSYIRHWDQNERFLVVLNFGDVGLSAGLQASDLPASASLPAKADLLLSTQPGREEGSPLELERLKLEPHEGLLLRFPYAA

Turning to `CS(=O)(=O)Nc1cc(C[C@H](N)C(=O)O)cc(NS(C)(=O)=O)c1` [Compound 61, (S)-2-Amino-3-(3,5-di(methylsulfonamido)phenyl)propanoic Acid], the IC50 was no less than 10000 nM. As for `Cc1ccc(NS(=O)(=O)c2cccc3ncccc23)cc1C[C@H](N)C(=O)O` [Compound 9, (S)-2-Amino-3-(2-methyl-5-(quinoline-5-sulfonamido)phenyl)propanoic Acid], the figure is 1000 to 10000 nM; as for `Cc1ccc(N(C)S(=O)(=O)c2cccc3c(N(C)C)cccc23)cc1C[C@H](N)C(=O)O` [Compound 16, (S)-2-Amino-3-(5-((5-(dimethylamino)-N-methylnaphthalene)-1-sulfonamido)-2-methylphenyl)propanoic Acid], 100 to 1000 nM; as for `CS(=O)(=O)Nc1cccc(C[C@H](N)C(=O)O)c1` [Compound 68, (S)-2-Amino-3-(3-(methylsulfonamido)phenyl)propanoic Acid], no less than 10000 nM. On to `CC(C)c1ccc(NS(=O)(=O)c2cccc3c(N(C)C)cccc23)cc1C[C@@H](N)C(=O)O` [Compound 34, (R)-2-Amino-3-(5-((5-(dimethylamino)naphthalene)-1-sulfonamido)-2-isopropylphenyl)propanoic Acid], for which the IC50 was in the range of 1000 to 10000 nM. With `CN(C)S(=O)(=O)c1cccc(C[C@H](N)C(=O)O)c1` [Compound 73, (S)-2-Amino-3-(3-(N,N-dimethylsulfamoyl)phenyl)propanoic Acid] the figure was 1000 to 10000 nM; with `Cc1ccc(S(=O)(=O)NCC(C)C)cc1C[C@H](N)C(=O)O` [Compound 46, (S)-2-Amino-3-(5-(N-isobutylsulfamoyl)-2-methylphenyl)propanoic Acid], 100 to 1000 nM. For the compound `Cc1ccc(NS(=O)(=O)c2cccc3ccccc23)cc1C[C@H](N)C(=O)O` [Compound 6, (S)-2-Amino-3-(2-methyl-5-(naphthalene-1-sulfonamido)phenyl)propanoic Acid], the IC50 is 100 to 1000 nM. In the case of `Cc1cc(S(=O)(=O)Nc2ccc(Cl)cc2)ccc1C[C@H](N)C(=O)O` [Compound 85, (S)-2-Amino-3-(4-(N-(4-chlorophenyl)sulfamoyl)-2-methylphenyl)propanoic Acid], the IC50 was 100 to 1000 nM. Regarding `Cc1ccc(NS(=O)(=O)c2ccc(Cl)c3nonc23)cc1C[C@H](N)C(=O)O` [Compound 24, (S)-2-Amino-3-(5-((7-chlorobenzo[c][1,2,5]oxadiazole)-4-sulfonamido)-2-methylphenyl)propanoic Acid], the IC50 was in the range of 1000 to 10000 nM.

Turning to `N[C@@H](Cc1cccc(S(N)(=O)=O)c1)C(=O)O` [Compound 71, (S)-2-Amino-3-(3-sulfamoylphenyl)propanoic Acid], the IC50 was no less than 10000 nM. For the compound `N[C@@H](Cc1cccc(S(=O)(=O)N2CCCCC2)c1)C(=O)O` [Compound 78, (S)-2-Amino-3-(3-(piperidin-1-ylsulfonyl)phenyl)propanoic Acid], the IC50 lay in the range of 1000 to 10000 nM. With `Cc1ccc(NS(C)(=O)=O)cc1C[C@H](N)C(=O)O` [Compound 67, (S)-2-Amino-3-(2-methyl-5-(methylsulfonamido)phenyl)propanoic Acid], the IC50 is no less than 10000 nM. On to `COc1ccc(NS(=O)(=O)c2cccc3c(N(C)C)cccc23)cc1C[C@H](N)C(=O)O` [Compound 5, (S)-2-Amino-3-(5-((5-(dimethylamino)naphthalene)-1-sulfonamido)-2-methoxyphenyl)propanoic Acid], for which the IC50 fell in the range of 100 to 1000 nM. For the compound `Cc1ccc(NS(=O)(=O)c2cccc3c(N(C)C)cccc23)cc1C[C@H](N)C(=O)O` [Compound 2, (S)-2-Amino-3-(5-((5-(dimethylamino)naphthalene)-1-sulfonamido)-2-methylphenyl)propanoic Acid], the IC50 was in the range of 100 to 1000 nM. `Cc1ccc(C[S+]([O-])Cc2ccccc2)cc1C[C@H](N)C(=O)O` (stereo partly drawn) [Compound 60, (2S)-2-Amino-3-(5-((benzylsulfinyl)methyl)-2-methylphenyl)propanoic Acid]: the IC50 was 100 to 1000 nM. For `Cc1ccc(NS(=O)(=O)C(C)C)cc1C[C@H](N)C(=O)O` [Compound 20, (S)-2-Amino-3-(2-methyl-5-((1-methylethyl)sulfonamido)phenyl)propanoic Acid], the IC50 lay in the range of 1000 to 10000 nM. `N[C@@H](Cc1cc(Cl)c(NS(=O)(=O)c2ccccc2)c(Cl)c1)C(=O)O` [Compound 47, (S)-2-Amino-3-(3,5-dichloro-4-(phenylsulfonamido)phenyl)propanoic Acid]: the IC50 is no less than 10000 nM. In the case of `CS(=O)(=O)Nc1ccccc1C[C@H](N)C(=O)O` [Compound 1, (S)-2-Amino-3-(2-(methylsulfonamido)phenyl)propanoic Acid], the IC50 was no less than 10000 nM.

For the compound `Cc1ccc(CNS(=O)(=O)Cc2ccccc2)cc1C[C@H](N)C(=O)O` [Compound 54, (S)-2-Amino-3-(2-methyl-5-(((phenylmethyl)sulfonamido)methyl)phenyl)propanoic Acid], the IC50 fell in the range of 1000 to 10000 nM. As for `CS(=O)(=O)Nc1ccc(C[C@H](N)C(=O)O)cc1` [Compound 70, (S)-2-Amino-3-(4-(methylsulfonamido)phenyl)propanoic Acid], the figure is no less than 10000 nM; as for `N[C@@H](Cc1cc(NS(=O)(=O)c2ccccc2)cc(NS(=O)(=O)c2ccccc2)c1)C(=O)O` [Compound 62, (S)-2-Amino-3-(3,5-bis(phenylsulfonamido)phenyl)propanoic Acid], no less than 10000 nM; as for `Cc1ccc(S(=O)(=O)Nc2ccc(C)c(C[C@H](N)C(=O)O)c2)cc1` [Compound 7, (S)-2-Amino-3-(2-methyl-5-((4-methylphenyl)sulfonamido)phenyl)propanoic Acid], 100 to 1000 nM. As for `Cc1ccc(NS(=O)(=O)C2CCCCC2)cc1C[C@H](N)C(=O)O` [Compound 26, (S)-2-Amino-3-(5-(cyclohexanesulfonamido)-2-methylphenyl)propanoic Acid], the IC50 fell in the range of 100 to 1000 nM. For `CCCCS(=O)(=O)Nc1ccc(C)c(C[C@H](N)C(=O)O)c1` [Compound 58, (S)-2-Amino-3-(5-(butylsulfonamido)-2-methylphenyl)propanoic Acid], the IC50 was in the range of 100 to 1000 nM. With `COc1ccc(S(=O)(=O)Nc2ccc(C)c(C[C@H](N)C(=O)O)c2)cc1` [Compound 57, (S)-2-Amino-3-(5-((4-methoxyphenyl)sulfonamido)-2-methylphenyl)propanoic Acid], the IC50 lay within 100 to 1000 nM. As for `Cc1ccc(S(=O)(=O)N2CCC[C@@H]2C(=O)O)cc1C[C@H](N)C(=O)O` [Compound 45, ((3-((S)-2-Amino-2-carboxyethyl)-4-methylphenyl)sulfonyl)-D-proline], the IC50 was no less than 10000 nM. `Cc1ccc(S(=O)(=O)Nc2cc(C[C@H](N)C(=O)O)cc(NS(=O)(=O)c3ccc(C)cc3)c2)cc1` [Compound 63, (S)-2-Amino-3-(3,5-bis((4-methylphenyl)sulfonamido)phenyl)propanoic Acid]: the IC50 lay within 1000 to 10000 nM.

For `Cc1ccc(NS(=O)(=O)c2cccc3nonc23)cc1C[C@H](N)C(=O)O` [Compound 25, (S)-2-Amino-3-(5-(benzo[c][1,2,5]oxadiazole-4-sulfonamido)-2-methylphenyl)propanoic Acid], the IC50 fell in the range of 1000 to 10000 nM.

As for `Cc1ccc(NS(=O)(=O)c2cccnc2)cc1C[C@H](N)C(=O)O` [Compound 11, (S)-2-Amino-3-(2-methyl-5-(pyridine-3-sulfonamido)phenyl)propanoic Acid], the IC50 lay within 1000 to 10000 nM. Regarding `N[C@@H](Cc1ccc(S(=O)(=O)Nc2ccc(Cl)cc2)cc1)C(=O)O` [Compound 80, (S)-2-Amino-3-(4-(N-(4-chlorophenyl)sulfamoyl)phenyl)propanoic Acid], the IC50 is 1000 to 10000 nM. As to `Cc1ccc(S(=O)(=O)N(C)c2ccc(Cl)cc2)cc1C[C@H](N)C(=O)O` [Compound 84, (S)-2-Amino-3-(5-(N-(4-chlorophenyl)-N-methylsulfamoyl)-2-methylphenyl)propanoic Acid], the IC50 fell in the range of 20 to 100 nM. With `Cc1ccc(NS(=O)(=O)c2cccc(N)c2)cc1C[C@H](N)C(=O)O` [Compound 28, (S)-2-Amino-3-(5-((3-aminophenyl)sulfonamido)-2-methylphenyl)propanoic Acid] the figure was 100 to 1000 nM; with `Cc1ccc(S(=O)(=O)Nc2ccc(Cl)c(Cl)c2)cc1C[C@H](N)C(=O)O` [Compound 83, (S)-2-Amino-3-(5-(N-(3,4-dichlorophenyl)sulfamoyl)-2-methylphenyl)propanoic Acid], 100 to 1000 nM; with `CN(C)c1cccc2c(S(=O)(=O)Nc3cccc(C[C@H](N)C(=O)O)c3)cccc12` [Compound 3, (S)-2-Amino-3-(3-((5-(dimethylamino)naphthalene)-1-sulfonamido)phenyl)propanoic Acid], 100 to 1000 nM. Consider `N[C@@H](Cc1ccccc1S(=O)(=O)Nc1ccc(Cl)cc1)C(=O)O` [Compound 81, (S)-2-Amino-3-(2-(N-(4-chlorophenyl)sulfamoyl)phenyl)propanoic Acid], for which the IC50 was 1000 to 10000 nM. As for `Cc1ccc(S(=O)(=O)Nc2ccc(Cl)cc2)cc1C[C@@H](N)C(=O)O` [Compound 51, (R)-2-Amino-3-(5-(N-(4-chlorophenyl)sulfamoyl)-2-methylphenyl)propanoic Acid], the figure is no less than 10000 nM; as for `Cc1ccc(CSCc2ccccc2)cc1C[C@H](N)C(=O)O` [Compound 55, (S)-2-Amino-3-(5-((benzylthio)methyl)-2-methylphenyl)propanoic Acid], 100 to 1000 nM.
